Experimental data: patent US20260193317A1, “COMBINATION THERAPY WITH ACTRIIB RECEPTOR VARIANTS AND GLP-1 AGONISTS” (35PHARMA Inc., priority 2023, published 2026)

Legend:
TGFβ superfamily ligands = experiment: Neutralization profile across TGFβ superfamily ligands (HEK293 and HepG2 reporter assays, summary); assay type: cell-based, human
Procedure: Potency testing by neutralization on cell-based assays. Characterization of the activin A, activin B, GDF-8, and GDF-11 inhibition potency (IC50) of the fusion proteins was performed using a cell-based reporter assay. TGFβ-reporter HEK293 cells were obtained from InvivoGen (San Diego, CA, cat. no. hkb-tgfb) and were maintained following the manufacturer's instructions. Briefly, cells were grown in high-glucose DMEM, containing 10% heat-inactivated FBS, 30 μg/mL blasticidin, 250 μg/mL hygromycin B, and 100 μg/mL zeocin (hereafter, “growth medium”). Once the cells reached 70-80% confluence, they were detached in growth medium by gently tapping on the flask. For all assays, cells were seeded in 96-well plates at a density of 20,000 cells per well in growth medium. Cells were left to attach for 10 minutes at room temperature (RT) prior to being transferred to a 37° C. incubator (5% CO2) overnight. The next day, treatments were prepared by combining the appropriate concentration of agent with activin A, activin B, GDF-8, or GDF-11 for 30 min at RT (shaking at 150 rpm). Treatments were conducted in high-glucose DMEM (serum-free and with no selection agents), and the final concentration of cytokine (ligand) was 0.3 nM. Growth medium was removed from the culture plates, and cells were treated with the appropriate mixes of fusion protein and cytokine. Treatment duration was for 18-22 h at 37° C. (5% CO2). All treatments were performed in technical duplicates and at least one or two independent experiments were conducted for each cytokine. At the end of the treatment period, supernatants were transferred to a new plate, and centrifuged at 300 RPM for 3 min. Forty microlitres of supernatant from each condition was transferred to a new plate, into which 180 μL of Quanti-Blue reagent (InvivoGen, cat. no. rep-qbs) was added. Quanti-Blue reagent was prepared following the manufacturer's instructions. Samples were incubated for 45 min at 37° C. At the end of the incubation, absorbance was read at 650 nm. The data were plotted in GraphPad Prism, which was used to calculate IC50 values as a non-linear regression.
Characterization of the BMP-9 and BMP-10 inhibition potency (IC50) of the fusion proteins was performed using a second cell-based reporter assay. Human hepatic HepG2 cells were transfected with a SEAP-encoding plasmid, in which SEAP expression is under the control of the murine Id1 promoter. A stable pool was generated from this transfection. Cells were grown in EMEM, containing 10% heat-inactivated FBS and 200 μg/mL zeocin (hereafter, “HepG2 growth medium”). […] For all assays, cells were seeded in 96-well plates at a confluence of 100,000 cells per well in HepG2 growth medium. Cells were left to attach for 10 minutes at RT prior to being transferred to a 37° C. incubator (5% CO2) overnight. The next day, treatments were prepared in EMEM (2.5% heat-inactivated FBS and with no selection agents) by combining the appropriate concentration of agent with BMP-9 or BMP-10 for 30 min at RT (shaking at 150 rpm). Treatments were conducted in EMEM (2.5% heat-inactivated FBS and with no selection agents), and the final concentration of BMP-9 and BMP-10 was 2 ng/mL and 40 ng/mL, respectively. HepG2 growth medium was removed from the culture plates, and cells were treated with the appropriate mixes of fusion protein and cytokine. Treatment duration was for 20-24 h at 37° C. (5% CO2). […]

BMP-9 = target: T1, BMP-9 (Homo sapiens, UniProt Q9UK05); experiment: Small-scale BMP-9 ELISA with CHO supernatants; assay type: binding; details: BMP-9 10 ng/mL
T1 sequence (Q9UK05 320-429): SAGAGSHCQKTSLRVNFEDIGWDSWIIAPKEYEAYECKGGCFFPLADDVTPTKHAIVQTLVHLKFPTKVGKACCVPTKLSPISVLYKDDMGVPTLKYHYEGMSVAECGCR
Procedure: Small-scale testing of ActRIIB-ECD fusion proteins. Additional investigation of a series of exemplary agents was performed using proteins expressed in CHO cells. Briefly, DNA encoding the ActRIIB-ECD-Fc fusion constructs was transfected in cells seeded in 12-well plates in a final volume of 1 ml. After 7 days, the supernatant was harvested, clarified, and the amount of expressed protein in each well was quantified using standard methods. The potency of each agent for inhibition of activin A, BMP-9 and BMP-10 was determined in three separate assays.
The next day, the plate was washed three times. […] Expressed proteins in the supernatants were diluted 1 in 2 in assay diluent (0.5% BSA, 0.05% tween-20 in PBS) and 100 μl was added to the 96-well plate in technical duplicates. After a 1.5-hour incubation at RT, the plate was washed three times. […] In this assay, a loss of signal indicates less binding of the exemplary agent to BMP-9. Results are expressed as a % of the signal obtained with wild-type ActRIIB-Fc (P75).

[1] = mouse, in vivo, sc
Procedure: Evaluation of pharmacokinetic profiles.
To determine the concentration of P1229 in mouse serum samples, a 96-well plate was coated 1 h at RT with a solution of anti-ectodomain antibody (1 μg/mL in carbonate buffer, 100 μL/well). The plate was then washed three times with buffer (Biolegend #421601). Blocking buffer (1% BSA, 0.05% tween-20 in TBS, 300 μL/well) was added to each well and the plate was incubated for 1 hour at RT with shaking at 300 rpm. The plate was washed three times and Standards, QCs and sample were diluted in assay diluent (1% BSA, 0.05% tween-20 in TBS, 100 μL/well) and loaded in duplicate on the plate for 1 h30 at RT with shaking at 300 rpm. The plate was washed three times and a solution of anti-human Fc antibody conjugated to HRP (Southern Biotech #2049-05, diluted 1 in 20,000 in assay diluent, 100 μL/well) was added to each well and incubated for 1 h at RT with shaking at 300 rpm.

[2] = SEC-HPLC monomer and HMW content of purified fusion proteins; assay type: physicochemical; details: after Protein A purification
Source text: Given that protein aggregation can be indicative of reduced conformational stability and decreased activity, Size-Exclusion Chromatography-High Performance Liquid Chromatography (SEC-HPLC) was used to determine the purity of each ActRIIB-ECD construct. This method measured the percentage of intact monomeric species as well as the presence of aggregates and/or degradation products.
All proteins expressed efficiently in CHO and/or 293 cells and purification efficiency of each using Protein A affinity chromatography was similar.

DIO mice = experiment: Body composition in high fat diet mice, alone and in combination with incretin mimetics; assay type: in vivo
Procedure: Experiments were performed in vivo to investigate the potential for additive or synergistic effects between exemplary ActRIIB-ECD polypeptide constructs and incretin mimetics.

[3] = DIO mice, 21 days, P1229 10 mg/kg twice weekly
[4] = DIO mice, 21 days, P1229 40 mg/kg twice weekly + calorie restriction

With “P1229: hActRIIB L33W, 14 aa linker, IgG1-DL Fc; SEQ ID 211” the “improved potency on activin A, GDF-8, and GDF-11 relative to P75” value (TGFβ superfamily ligands) was ~ 4 fold, the “BMP-9 binding, ELISA signal relative to P75” value (BMP-9) was “very low BMP-9 binding” and the “PK profile alone versus in the co-formulation” value [1] was “comparable PK profile”. For the same molecule, the “high molecular weight (HMW) content (SEC-HPLC)” value [2] was 3%, the “monomer content (SEC-HPLC)” value [2] was 97% and the “Body weight (% change from baseline)” value (DIO mice; DIO mice, 21 days s.c., P1307 20 mg/kg weekly, P1229 40 mg/kg twice weekly, semaglutide 40 μg/kg daily, tirzepatide 45 μg/kg daily, alone or combined) was “+11.1%”. The “Body weight (% change from baseline)” value (DIO mice; [3]) was “+7.7%”, the “Fat mass (% change from baseline)” value (DIO mice; [3]) was −1.6% and the “Lean mass (% change from baseline)” value (DIO mice; [3]) was “+10.6%”. The “Lean mass/fat mass ratio” value (DIO mice; [3]) was 1.4, the “Body weight (% change from baseline)” value (DIO mice; [4]) was −12.8% and the “Fat mass (% change from baseline)” value (DIO mice; [4]) was −33.7%. For the same molecule, the “Lean mass (% change from baseline)” value (DIO mice; [4]) was “+3.5%”, the “Lean mass/fat mass ratio” value (DIO mice; [4]) was 1.9 and the “visceral, epididymal, pericardial, peri-renal, and retroperitoneal white adipose tissue weights” value (DIO mice; DIO mice, D21) was “not significantly affected”. For the same molecule, the “white adipose tissue weights” value (DIO mice; DIO mice, D21, P1229 with caloric restriction) was “significantly decreased visceral, pericardial, and peri-renal (but not epididymal and retroperitoneal) white adipose tissue weights”, the “gastrocnemius and tibialis anterior weights” value (DIO mice; DIO mice, D21, P1229 with or without caloric restriction) was “significantly increased” and the “Fat mass (% change from baseline)” value (DIO mice; as E44, NMR) was “+2.7%”. The “Lean mass (% change from baseline)” value (DIO mice; as E44, NMR) was “+15.1%” and the “Lean mass/fat mass ratio” value (DIO mice; as E44, NMR) was 1.3.

B1: P1372: hActRIIB L33W, 14 aa linker, IgG1 YTE-DL Fc; SEQ ID 231 (protein)
chain: ETRECIYYNANWELERTNQSGLERCEGEQDKRWHCYASWRNSSGTIELVKKGCWLDDFNCYDRQECVATEENPQVYFCCCEGNFCNERFTHLPEAGGPEVTYEPPPTGGGGSGGGGSGGGGTHTCPPCPAPELLGGPSVFLFPPKPKDTLYITREPEVTCVVVDVSHEDPEVKFNWYVDGVEVHNAKTKPREEQYNSTYRVVSVLTVLHQDWLNGKEYKCKVSNKALPAPIEKTISKAKGQPREPQVYTLPPSRDELTKNQVSLTCLVKGFYPSDIAVEWESNGQPENNYKTTPPVLDSDGSFFLYSKLTVDKSRWQQGNVFSCSVMHEALHNHYTQKSLSLSPG
In the case of B1, the “impact of modifications in the Fc sequence on activin A, activin B, GDF-8, and GDF-11 potency” value (TGFβ superfamily ligands; all ligands) is reported as “comparable to P1229”, the “impact of modifications in the Fc sequence on BMP-9 and BMP-10 potency” value (TGFβ superfamily ligands; both ligands) is reported as “comparable to P1229” and the “BMP-9 binding, ELISA signal relative to P75” value (BMP-9) is reported as “near-undetectable binding to BMP-9”. For the same molecule, the “high molecular weight (HMW) content (SEC-HPLC)” value [2] was 1% and the “monomer content (SEC-HPLC)” value [2] was 99%.
